Results taken from PMC7407272, “Induction of Lysosome Membrane Permeabilization as a Therapeutic Strategy to Target Pancreatic Cancer Stem Cells” (Cancers, 2020).

Tests used:
ERBB3 = molecular target: T1, ERBB3 (Homo sapiens, UniProt P21860); assay: KINOMEscan; type: binding; settings: read-out: % Ctrl
T1 construct: purchased DiscoveRx KINOMEscan

PKMYT1 = molecular target: T2, PKMYT1 (Homo sapiens, UniProt Q99640); assay: KINOMEscan; type: binding; settings: read-out: % Ctrl
T2 construct: purchased DiscoveRx KINOMEscan

[1] = molecular target: T3, EGFR(L747-E749del, A750P) (Homo sapiens, UniProt P00533, A750P/DEL747-749); assay: KINOMEscan; type: binding; settings: read-out: % Ctrl
T3 construct: purchased DiscoveRx KINOMEscan

CHEK1 = molecular target: T4, CHEK1 (Homo sapiens, UniProt O14757); assay: KINOMEscan; type: binding; settings: read-out: % Ctrl
T4 construct: purchased DiscoveRx KINOMEscan

CASK = molecular target: T5, CASK (Homo sapiens, UniProt O14936); assay: KINOMEscan; type: binding; settings: read-out: % Ctrl
T5 construct: purchased DiscoveRx KINOMEscan

ASK2 = molecular target: T6, ASK2 (Homo sapiens, UniProt O95382); assay: KINOMEscan; type: binding; settings: read-out: % Ctrl
T6 construct: purchased DiscoveRx KINOMEscan

CSNK1A1 = molecular target: T7, CSNK1A1 (Homo sapiens, UniProt P48729); assay: KINOMEscan; type: binding; settings: read-out: % Ctrl
T7 construct: purchased DiscoveRx KINOMEscan

SYK = molecular target: T8, SYK (Homo sapiens, UniProt P43405); assay: KINOMEscan; type: binding; settings: read-out: % Ctrl
T8 construct: purchased DiscoveRx KINOMEscan

NDR2 = molecular target: T9, NDR2 (Homo sapiens, UniProt Q9Y2H1); assay: KINOMEscan; type: binding; settings: read-out: % Ctrl
T9 construct: purchased DiscoveRx KINOMEscan

KIT(L576P) = molecular target: T10, KIT(L576P) (Homo sapiens, UniProt P10721, L576P); assay: KINOMEscan; type: binding; settings: read-out: % Ctrl
T10 construct: purchased DiscoveRx KINOMEscan

RSK1(KD2-C-t.) = molecular target: T11, RSK1(KD2-C-t.) (Homo sapiens, UniProt Q15418); assay: KINOMEscan; type: binding; settings: read-out: % Ctrl
T11 construct: RSK1(KD2-C-t.); purchased DiscoveRx KINOMEscan

DAPK1 = molecular target: T12, DAPK1 (Homo sapiens, UniProt P53355); assay: KINOMEscan; type: binding; settings: read-out: % Ctrl
T12 construct: purchased DiscoveRx KINOMEscan

CDC2L1 = molecular target: T13, CDC2L1 (Homo sapiens, UniProt P21127); assay: KINOMEscan; type: binding; settings: read-out: % Ctrl
T13 construct: purchased DiscoveRx KINOMEscan

FLT3(D835Y) = molecular target: T14, FLT3(D835Y) (Homo sapiens, UniProt P36888, D835Y); assay: KINOMEscan; type: binding; settings: read-out: % Ctrl
T14 construct: purchased DiscoveRx KINOMEscan

ABL1(Q252H)-nonP = molecular target: T15, ABL1(Q252H)-nonP (Homo sapiens, UniProt P00519, Q252H); assay: KINOMEscan; type: binding; settings: read-out: % Ctrl
T15 construct: purchased DiscoveRx KINOMEscan

EPHA2 = molecular target: T16, EPHA2 (Homo sapiens, UniProt P29317); assay: KINOMEscan; type: binding; settings: read-out: % Ctrl
T16 construct: purchased DiscoveRx KINOMEscan

AURKC = molecular target: T17, AURKC (Homo sapiens, UniProt Q9UQB9); assay: KINOMEscan; type: binding; settings: read-out: % Ctrl
T17 construct: purchased DiscoveRx KINOMEscan

ERBB4 = molecular target: T18, ERBB4 (Homo sapiens, UniProt Q15303); assay: KINOMEscan; type: binding; settings: read-out: % Ctrl
T18 construct: purchased DiscoveRx KINOMEscan

AKT3 = molecular target: T19, AKT3 (Homo sapiens, UniProt Q9Y243); assay: KINOMEscan; type: binding; settings: read-out: % Ctrl
T19 construct: purchased DiscoveRx KINOMEscan

EGFR(L858R,T790M) = molecular target: T20, EGFR(L858R,T790M) (Homo sapiens, UniProt P00533, L858R/T790M); assay: KINOMEscan; type: binding; settings: read-out: % Ctrl
T20 construct: purchased DiscoveRx KINOMEscan

FGFR3 = molecular target: T21, FGFR3 (Homo sapiens, UniProt P22607); assay: KINOMEscan; type: binding; settings: read-out: % Ctrl
T21 construct: purchased DiscoveRx KINOMEscan

DYRK1B = molecular target: T22, DYRK1B (Homo sapiens, UniProt Q9Y463); assay: KINOMEscan; type: binding; settings: read-out: % Ctrl
T22 construct: purchased DiscoveRx KINOMEscan

YES = molecular target: T23, YES (Homo sapiens, UniProt P07947); assay: KINOMEscan; type: binding; settings: read-out: % Ctrl
T23 construct: purchased DiscoveRx KINOMEscan

CDKL1 = molecular target: T24, CDKL1 (Homo sapiens, UniProt Q00532); assay: KINOMEscan; type: binding; settings: read-out: % Ctrl
T24 construct: purchased DiscoveRx KINOMEscan

ACVR1 = molecular target: T25, ACVR1 (Homo sapiens, UniProt Q04771); assay: KINOMEscan; type: binding; settings: read-out: % Ctrl
T25 construct: purchased DiscoveRx KINOMEscan

TGFBR2 = molecular target: T26, TGFBR2 (Homo sapiens, UniProt P37173); assay: KINOMEscan; type: binding; settings: read-out: % Ctrl
T26 construct: purchased DiscoveRx KINOMEscan

FLT3 = molecular target: T27, FLT3 (Homo sapiens, UniProt P36888); assay: KINOMEscan; type: binding; settings: read-out: % Ctrl
T27 construct: purchased DiscoveRx KINOMEscan

RPS6KA4(KD2-C-t.) = molecular target: T28, RPS6KA4(KD2-C-t.) (Homo sapiens, UniProt O75676); assay: KINOMEscan; type: binding; settings: read-out: % Ctrl
T28 construct: RPS6KA4(KD2-C-t.); purchased DiscoveRx KINOMEscan

MARK2 = molecular target: T29, MARK2 (Homo sapiens, UniProt Q7KZI7); assay: KINOMEscan; type: binding; settings: read-out: % Ctrl
T29 construct: purchased DiscoveRx KINOMEscan

PLK1 = molecular target: T30, PLK1 (Homo sapiens, UniProt P53350); assay: KINOMEscan; type: binding; settings: read-out: % Ctrl
T30 construct: purchased DiscoveRx KINOMEscan

ERK8 = molecular target: T31, ERK8 (Homo sapiens, UniProt Q8TD08); assay: KINOMEscan; type: binding; settings: read-out: % Ctrl
T31 construct: purchased DiscoveRx KINOMEscan

YANK1 = molecular target: T32, YANK1 (Homo sapiens, UniProt Q8WU08); assay: KINOMEscan; type: binding; settings: read-out: % Ctrl
T32 construct: purchased DiscoveRx KINOMEscan

JNK2 = molecular target: T33, JNK2 (Homo sapiens, UniProt P45984); assay: KINOMEscan; type: binding; settings: read-out: % Ctrl
T33 construct: purchased DiscoveRx KINOMEscan

PIKFYVE = molecular target: T34, PIKFYVE (Homo sapiens, UniProt Q9Y2I7); assay: KINOMEscan; type: binding; settings: read-out: % Ctrl
T34 construct: purchased DiscoveRx KINOMEscan

PRKR = molecular target: T35, PRKR (Homo sapiens, UniProt P19525); assay: KINOMEscan; type: binding; settings: read-out: % Ctrl
T35 construct: purchased DiscoveRx KINOMEscan

LTK = molecular target: T36, LTK (Homo sapiens, UniProt P29376); assay: KINOMEscan; type: binding; settings: read-out: % Ctrl
T36 construct: purchased DiscoveRx KINOMEscan

p38-delta = molecular target: T37, p38-delta (Homo sapiens, UniProt O15264); assay: KINOMEscan; type: binding; settings: read-out: % Ctrl
T37 construct: purchased DiscoveRx KINOMEscan

TIE2 = molecular target: T38, TIE2 (Homo sapiens, UniProt Q02763); assay: KINOMEscan; type: binding; settings: read-out: % Ctrl
T38 construct: purchased DiscoveRx KINOMEscan

FLT3(ITD) = assay: KINOMEscan; type: binding, human; settings: 1 µM
NEK2 = molecular target: T39, NEK2 (Homo sapiens, UniProt P51955); assay: KINOMEscan; type: binding; settings: read-out: % Ctrl
T39 construct: purchased DiscoveRx KINOMEscan

FGFR3(G697C) = molecular target: T40, FGFR3(G697C) (Homo sapiens, UniProt P22607, G697C); assay: KINOMEscan; type: binding; settings: read-out: % Ctrl
T40 construct: purchased DiscoveRx KINOMEscan

KIT = molecular target: T41, KIT (Homo sapiens, UniProt P10721); assay: KINOMEscan; type: binding; settings: read-out: % Ctrl
T41 construct: purchased DiscoveRx KINOMEscan

[2] = test system: implanted invasive glioblastoma spheroids or gliobastomas PDXs; set-up: method as in PMID 28270132; settings: 100 mg/kg; cited from earlier work

T5 sequence (O14936 whole entry): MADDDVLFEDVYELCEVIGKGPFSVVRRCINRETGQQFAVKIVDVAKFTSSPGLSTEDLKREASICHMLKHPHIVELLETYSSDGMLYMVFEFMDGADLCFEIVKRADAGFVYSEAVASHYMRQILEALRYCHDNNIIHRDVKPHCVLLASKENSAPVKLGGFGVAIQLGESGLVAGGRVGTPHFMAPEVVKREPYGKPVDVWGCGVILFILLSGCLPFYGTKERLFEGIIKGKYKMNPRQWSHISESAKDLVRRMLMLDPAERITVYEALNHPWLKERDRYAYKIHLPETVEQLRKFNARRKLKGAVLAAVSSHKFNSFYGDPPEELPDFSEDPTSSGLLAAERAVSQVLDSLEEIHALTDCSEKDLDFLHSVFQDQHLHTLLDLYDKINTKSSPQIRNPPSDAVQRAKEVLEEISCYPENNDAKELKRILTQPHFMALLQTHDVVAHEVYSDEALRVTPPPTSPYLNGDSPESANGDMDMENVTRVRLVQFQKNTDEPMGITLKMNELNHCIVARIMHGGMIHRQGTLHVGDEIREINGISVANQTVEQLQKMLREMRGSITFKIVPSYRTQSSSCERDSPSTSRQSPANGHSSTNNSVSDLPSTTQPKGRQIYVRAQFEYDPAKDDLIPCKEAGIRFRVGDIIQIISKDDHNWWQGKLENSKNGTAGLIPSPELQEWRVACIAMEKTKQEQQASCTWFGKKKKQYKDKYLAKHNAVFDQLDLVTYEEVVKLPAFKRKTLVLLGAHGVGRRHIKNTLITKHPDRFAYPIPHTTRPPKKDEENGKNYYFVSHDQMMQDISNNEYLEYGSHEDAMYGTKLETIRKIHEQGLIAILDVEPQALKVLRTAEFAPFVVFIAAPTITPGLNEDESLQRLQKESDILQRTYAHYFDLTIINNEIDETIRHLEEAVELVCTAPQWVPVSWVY
T18 sequence (Q15303 26-1308): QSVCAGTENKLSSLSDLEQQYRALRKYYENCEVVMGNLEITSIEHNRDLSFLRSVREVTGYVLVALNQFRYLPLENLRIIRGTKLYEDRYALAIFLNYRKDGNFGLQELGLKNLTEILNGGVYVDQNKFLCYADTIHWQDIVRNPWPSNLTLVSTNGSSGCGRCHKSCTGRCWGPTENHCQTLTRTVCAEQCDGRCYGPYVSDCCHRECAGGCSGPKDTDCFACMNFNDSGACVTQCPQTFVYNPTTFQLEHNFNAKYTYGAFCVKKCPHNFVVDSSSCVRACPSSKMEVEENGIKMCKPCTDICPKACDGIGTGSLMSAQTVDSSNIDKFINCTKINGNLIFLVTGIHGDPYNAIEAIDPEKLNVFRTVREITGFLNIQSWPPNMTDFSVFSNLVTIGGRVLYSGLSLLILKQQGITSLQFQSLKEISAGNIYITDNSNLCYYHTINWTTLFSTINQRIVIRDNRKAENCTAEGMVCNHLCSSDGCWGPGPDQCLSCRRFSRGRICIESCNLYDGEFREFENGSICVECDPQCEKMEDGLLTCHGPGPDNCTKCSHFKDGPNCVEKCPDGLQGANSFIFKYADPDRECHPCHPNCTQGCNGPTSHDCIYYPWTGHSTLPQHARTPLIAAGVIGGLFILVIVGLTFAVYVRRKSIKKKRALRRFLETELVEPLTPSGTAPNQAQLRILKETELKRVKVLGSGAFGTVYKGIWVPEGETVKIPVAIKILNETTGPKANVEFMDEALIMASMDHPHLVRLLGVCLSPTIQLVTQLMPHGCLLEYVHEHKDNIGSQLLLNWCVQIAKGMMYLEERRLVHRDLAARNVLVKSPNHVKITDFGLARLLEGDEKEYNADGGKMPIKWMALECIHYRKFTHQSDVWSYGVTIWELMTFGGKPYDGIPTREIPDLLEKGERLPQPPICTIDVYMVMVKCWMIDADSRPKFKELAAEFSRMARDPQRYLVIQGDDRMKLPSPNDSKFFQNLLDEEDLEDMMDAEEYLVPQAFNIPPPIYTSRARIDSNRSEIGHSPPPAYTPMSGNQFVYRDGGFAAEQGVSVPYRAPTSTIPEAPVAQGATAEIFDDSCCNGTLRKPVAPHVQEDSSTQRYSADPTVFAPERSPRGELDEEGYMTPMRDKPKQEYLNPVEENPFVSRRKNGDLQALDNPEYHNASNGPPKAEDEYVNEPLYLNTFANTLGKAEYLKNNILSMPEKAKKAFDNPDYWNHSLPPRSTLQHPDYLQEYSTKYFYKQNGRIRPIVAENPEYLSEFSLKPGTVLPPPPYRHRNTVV
T3 sequence (P00533 with tags, fused parts or gaps DEL747-749/A750P limits assumed): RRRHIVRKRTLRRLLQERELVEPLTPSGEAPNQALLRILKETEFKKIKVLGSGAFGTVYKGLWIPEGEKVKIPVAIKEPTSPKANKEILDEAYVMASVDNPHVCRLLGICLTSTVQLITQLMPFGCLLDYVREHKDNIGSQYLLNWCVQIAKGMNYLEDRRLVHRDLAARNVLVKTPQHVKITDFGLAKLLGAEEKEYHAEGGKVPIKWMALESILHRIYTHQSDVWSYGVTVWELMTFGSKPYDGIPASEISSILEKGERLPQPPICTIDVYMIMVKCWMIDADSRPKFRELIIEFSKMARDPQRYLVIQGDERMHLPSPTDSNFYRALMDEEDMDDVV
T2 sequence (Q99640 whole entry): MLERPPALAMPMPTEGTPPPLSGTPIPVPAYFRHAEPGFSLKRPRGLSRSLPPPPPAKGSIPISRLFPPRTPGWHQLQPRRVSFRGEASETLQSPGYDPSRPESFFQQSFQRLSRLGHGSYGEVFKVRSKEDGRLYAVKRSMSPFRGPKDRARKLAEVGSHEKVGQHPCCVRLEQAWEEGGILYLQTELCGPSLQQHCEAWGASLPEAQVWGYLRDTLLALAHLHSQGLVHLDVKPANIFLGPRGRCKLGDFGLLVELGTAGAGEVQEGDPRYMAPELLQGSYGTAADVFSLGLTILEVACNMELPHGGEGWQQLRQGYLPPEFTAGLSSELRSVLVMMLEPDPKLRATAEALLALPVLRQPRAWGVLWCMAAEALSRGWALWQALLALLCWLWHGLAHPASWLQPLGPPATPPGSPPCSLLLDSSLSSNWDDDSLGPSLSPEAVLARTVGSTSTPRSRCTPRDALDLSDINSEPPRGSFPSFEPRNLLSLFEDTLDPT
T26 sequence (P37173 23-567): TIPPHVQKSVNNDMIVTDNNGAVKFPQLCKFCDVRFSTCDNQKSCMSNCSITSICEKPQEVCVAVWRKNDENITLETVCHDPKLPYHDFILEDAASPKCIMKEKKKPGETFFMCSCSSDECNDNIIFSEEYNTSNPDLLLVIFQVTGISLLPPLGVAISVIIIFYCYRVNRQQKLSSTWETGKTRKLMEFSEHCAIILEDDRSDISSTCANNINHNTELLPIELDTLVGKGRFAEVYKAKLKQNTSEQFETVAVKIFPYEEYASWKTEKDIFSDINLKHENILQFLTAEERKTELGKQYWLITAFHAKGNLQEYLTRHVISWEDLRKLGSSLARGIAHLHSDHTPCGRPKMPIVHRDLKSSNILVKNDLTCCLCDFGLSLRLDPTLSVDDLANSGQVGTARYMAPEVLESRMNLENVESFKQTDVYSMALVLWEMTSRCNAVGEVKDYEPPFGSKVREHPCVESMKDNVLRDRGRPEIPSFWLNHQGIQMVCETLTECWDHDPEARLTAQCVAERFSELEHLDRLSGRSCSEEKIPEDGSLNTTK
T28 sequence (O75676 372-772 limits assumed): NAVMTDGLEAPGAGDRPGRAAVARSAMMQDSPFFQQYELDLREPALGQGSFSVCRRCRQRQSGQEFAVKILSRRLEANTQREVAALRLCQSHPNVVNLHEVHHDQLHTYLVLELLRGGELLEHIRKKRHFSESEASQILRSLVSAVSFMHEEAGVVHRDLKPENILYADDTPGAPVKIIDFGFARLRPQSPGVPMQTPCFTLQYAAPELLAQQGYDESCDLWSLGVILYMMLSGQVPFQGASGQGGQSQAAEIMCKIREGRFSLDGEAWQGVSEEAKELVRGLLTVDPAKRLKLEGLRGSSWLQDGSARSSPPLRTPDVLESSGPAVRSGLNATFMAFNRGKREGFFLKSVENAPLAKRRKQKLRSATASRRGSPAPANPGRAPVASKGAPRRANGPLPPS
T40 sequence (P22607 23-806 G697C): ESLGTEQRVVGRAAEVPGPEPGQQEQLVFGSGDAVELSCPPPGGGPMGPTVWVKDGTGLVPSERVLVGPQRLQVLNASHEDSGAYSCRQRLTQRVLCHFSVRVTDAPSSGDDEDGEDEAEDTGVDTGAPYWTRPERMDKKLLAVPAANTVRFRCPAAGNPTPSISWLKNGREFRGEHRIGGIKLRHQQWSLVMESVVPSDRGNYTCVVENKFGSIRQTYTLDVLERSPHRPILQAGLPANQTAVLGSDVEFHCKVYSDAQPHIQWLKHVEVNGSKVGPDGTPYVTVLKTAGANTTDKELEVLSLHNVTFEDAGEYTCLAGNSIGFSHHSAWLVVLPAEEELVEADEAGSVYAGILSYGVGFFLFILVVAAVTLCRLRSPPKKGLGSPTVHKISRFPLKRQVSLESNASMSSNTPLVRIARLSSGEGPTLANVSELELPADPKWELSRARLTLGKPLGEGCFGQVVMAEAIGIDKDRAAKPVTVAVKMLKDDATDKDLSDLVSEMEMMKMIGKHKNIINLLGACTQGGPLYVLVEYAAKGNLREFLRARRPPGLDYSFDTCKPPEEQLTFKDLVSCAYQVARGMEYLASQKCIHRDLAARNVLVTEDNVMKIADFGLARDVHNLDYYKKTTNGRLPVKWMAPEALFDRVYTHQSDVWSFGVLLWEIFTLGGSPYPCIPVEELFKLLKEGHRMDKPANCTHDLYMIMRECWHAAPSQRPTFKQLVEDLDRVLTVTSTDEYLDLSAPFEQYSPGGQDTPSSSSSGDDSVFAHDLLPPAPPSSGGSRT
T21 sequence (P22607 23-806): as the sequence (P22607 23-806 G697C) above, with C675G counted along it

In the case of `CN1CCC(CNc2ccc3ncc(C(=O)Nc4cccc(OC(F)(F)F)c4)n3n2)CC1` [Cpd 2], the remaining binding at 1 µM (ERBB3) is reported as 100%, the remaining binding at 1 µM (PKMYT1) is reported as 75% and the remaining binding at 1 µM [1] is reported as 84%. For the same molecule, the remaining binding at 1 µM (CHEK1) was 86%, the remaining binding at 1 µM (CASK) was 93% and the remaining binding at 1 µM (ASK2) was 99%. For the same molecule, the remaining binding at 1 µM (CSNK1A1) was 100%, the remaining binding at 1 µM (SYK) was 94% and the remaining binding at 1 µM (NDR2) was 91%. For the same molecule, the remaining binding at 1 µM (KIT(L576P)) was 88%, the remaining binding at 1 µM (RSK1(KD2-C-t.)) was 89% and the remaining binding at 1 µM (DAPK1) was 82%. It also gave a remaining binding at 1 µM (CDC2L1) of 100%, a remaining binding at 1 µM (FLT3(D835Y)) of 65% and a remaining binding at 1 µM (ABL1(Q252H)-nonP) of 94%. For the same molecule, the remaining binding at 1 µM (EPHA2) was 100%, the remaining binding at 1 µM (AURKC) was 95% and the remaining binding at 1 µM (ERBB4) was 100%. It also gave a remaining binding at 1 µM (AKT3) of 100%, a remaining binding at 1 µM (EGFR(L858R,T790M)) of 100% and a remaining binding at 1 µM (FGFR3) of 98%. For the same molecule, the remaining binding at 1 µM (DYRK1B) was 92%, the remaining binding at 1 µM (YES) was 95% and the remaining binding at 1 µM (CDKL1) was 97%. It also gave a remaining binding at 1 µM (ACVR1) of 99%, a remaining binding at 1 µM (TGFBR2) of 100% and a remaining binding at 1 µM (FLT3) of 92%. For the same molecule, the remaining binding at 1 µM (RPS6KA4(KD2-C-t.)) was 100%, the remaining binding at 1 µM (MARK2) was 96% and the remaining binding at 1 µM (PLK1) was 98%. It also gave a remaining binding at 1 µM (ERK8) of 96%, a remaining binding at 1 µM (YANK1) of 100% and a remaining binding at 1 µM (JNK2) of 99%. The remaining binding at 1 µM (PIKFYVE) was 45%, the remaining binding at 1 µM (PRKR) was 83% and the remaining binding at 1 µM (LTK) was 93%. For the same molecule, the remaining binding at 1 µM (p38-delta) was 100%, the remaining binding at 1 µM (TIE2) was 100% and the “% Ctrl” value (FLT3(ITD)) was 100%. It also gave a remaining binding at 1 µM (NEK2) of 94%, a remaining binding at 1 µM (FGFR3(G697C)) of 99% and a remaining binding at 1 µM (KIT) of 99%.

In the case of `Fc1ccc(-n2cc(CCCCN3CCC4(CC3)OCc3ccccc34)c3ccccc32)cc1` [siramesine], the efficacy in vivo [2] is given as “ineffective in vivo”.
